Assay results reported in patent publication US20090196912A1, “Pyridinylamines” (GPC Botech AG, priority 2004, published 2009).

Tests used:
Experiment in all cases: Generic kinase assay (33P-ATP, Myelin Basic Protein)
Assay type in all cases: biochemical
[1] = system: PDGFR; details: class symbol: % inhibition at 10 μM or IC50
Protocol: (§1) In order to determine the inhibitory effect of the compounds of the subject invention on various target enzymes a generic kinase assay was established.
(§2) Reactions were performed in 96-Well U-bottom microtiter plates (Greiner Bio-One; Frickenhausen/Germany, Cat. No. 650161), hereinafter designated “Assay Plates”. 10 μl of a solution comprising 40 μM Myelin Basic Protein (Invitrogen; Carlsbad, Calif./USA; Cat. No. 13228-010) and 4 μM ATP in three-fold concentrated Reaction Buffer (60 mM Tris-HCl, pH 7.5; 30 mM MgCl2; 3 mM dithiothreitol) were added into each well of the Assay Plate. 10 μl of serial dilutions of the compounds of the subject invention, dissolved in 4% DMSO, were then added into each well, except for Positive Control. Wells (C+ wells) and Negative Control Wells (C− wells). 10 μl of 4% DMSO without compounds were added to C+ and C− wells. 10 μl of a 500 mM solution of EDTA in water was then added to C− wells. Then 10 μl of a solution containing 50 μCi/ml Adenosine 5′-[γ-^33P]triphosphate in water was added to each well. To start the reaction 10 μl of the kinase to be assayed was added to each well. The optimal amount of kinase in the assay was determined to be the amount which yields to a turn-over of about 10% of ATP. Assay Plates were incubated for one hour at room temperature. Then 10 μl of a 500 mM solution of EDTA in water was added to each well except C− wells. Samples were now ready for measurement.
(§3) Measurements were preformed in 96-Well MAPH-Filter Plates (Millipore; Billerica, Mass./United States; Cat. No. MAPHNOB50), hereinafter designated “Measurement Plates”. Measurement Plates were washed with 200 μl of a 0.75% H3PO4 solution per well. The H3PO4 solution was exhausted using a Millipore vacuum station. 60 μl of a 0.75% H3PO4 solution was then added into each well, followed by the transfer of 30 μl of each well from the Assay Plate into the corresponding wells of the Measurement Plate. The Measurement Plate was incubated for 30 minutes at room temperature. Thereafter each well was washed three times with 200 μl of a 0.75% H3PO4 solution using a Millipore vacuum station. 20 μl of scintillation liquid (Supermix Liquid Szintillator; Perkin Elmer, Wellesley. Mass./United States; Cat. No. 1200-439) was then added to each well of the Measurement Plate. The plate was sealed and stored for 30 minutes in the darkness before radioactivity was quantified in a MicroBeta Scintillation Counter (Perkin Elmer, Wellesley. Mass./United States).

[2] = target: RICK (Homo sapiens, UniProt O43353); details: class symbol: % inhibition at 10 μM or IC50
Protocol: as §1, §2, §3

[3] = target: c-kit (Homo sapiens, UniProt P10721); details: 1 h; class symbol: % inhibition at 10 μM or IC50; read-out: Inhibitory effect on target c-kit
Protocol: as §1, §2, §3

[4] = target: p56Lck (Homo sapiens, UniProt P06239); details: class symbol: % inhibition at 10 μM or IC50; for inhibition at 10 µM: 1 h, read-out: Inhibitory effect on target p56Lck
Protocol: as §1, §2, §3

[5] = target: Abl (Homo sapiens, UniProt P00519); details: 1 h; class symbol: % inhibition at 10 μM or IC50; read-out: Inhibitory effect on target Abl
Protocol: as §1, §2, §3

[6] = target: cRaf (Homo sapiens, UniProt P04049); details: class symbol: % inhibition at 10 μM or IC50; for inhibition at 10 µM: 1 h, read-out: Inhibitory effect on target cRaf
Protocol: as §1, §2, §3

[7] = target: EGFR (Homo sapiens, UniProt P00533); details: class symbol: % inhibition at 10 μM or IC50
Protocol: as §1, §2, §3

Sequence of c-kit (P10721 26-976): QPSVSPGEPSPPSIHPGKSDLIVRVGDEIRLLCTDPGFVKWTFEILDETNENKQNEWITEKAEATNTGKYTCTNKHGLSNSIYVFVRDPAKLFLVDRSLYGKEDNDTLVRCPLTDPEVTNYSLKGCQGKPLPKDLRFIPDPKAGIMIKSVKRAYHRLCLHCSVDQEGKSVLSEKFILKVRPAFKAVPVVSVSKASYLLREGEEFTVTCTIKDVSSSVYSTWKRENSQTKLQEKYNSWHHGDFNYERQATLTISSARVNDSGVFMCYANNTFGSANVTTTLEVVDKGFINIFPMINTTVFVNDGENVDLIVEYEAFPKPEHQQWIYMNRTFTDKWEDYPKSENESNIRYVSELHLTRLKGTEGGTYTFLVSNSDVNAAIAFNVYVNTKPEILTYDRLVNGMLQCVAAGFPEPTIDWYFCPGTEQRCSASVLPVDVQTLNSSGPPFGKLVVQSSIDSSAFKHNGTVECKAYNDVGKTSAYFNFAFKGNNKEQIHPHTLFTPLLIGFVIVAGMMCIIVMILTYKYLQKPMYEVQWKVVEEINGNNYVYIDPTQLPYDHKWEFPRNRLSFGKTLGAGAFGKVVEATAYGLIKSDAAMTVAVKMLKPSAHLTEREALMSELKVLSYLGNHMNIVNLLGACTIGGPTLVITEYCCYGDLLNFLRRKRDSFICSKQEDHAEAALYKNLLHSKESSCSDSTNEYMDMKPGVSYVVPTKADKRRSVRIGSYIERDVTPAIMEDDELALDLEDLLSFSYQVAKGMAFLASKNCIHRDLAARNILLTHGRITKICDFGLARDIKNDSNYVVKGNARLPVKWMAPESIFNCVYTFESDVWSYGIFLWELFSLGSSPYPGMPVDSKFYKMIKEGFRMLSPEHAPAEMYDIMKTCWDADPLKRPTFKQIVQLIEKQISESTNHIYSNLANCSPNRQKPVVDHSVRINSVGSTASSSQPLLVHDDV
Sequence of RICK (O43353 whole entry, species assumed): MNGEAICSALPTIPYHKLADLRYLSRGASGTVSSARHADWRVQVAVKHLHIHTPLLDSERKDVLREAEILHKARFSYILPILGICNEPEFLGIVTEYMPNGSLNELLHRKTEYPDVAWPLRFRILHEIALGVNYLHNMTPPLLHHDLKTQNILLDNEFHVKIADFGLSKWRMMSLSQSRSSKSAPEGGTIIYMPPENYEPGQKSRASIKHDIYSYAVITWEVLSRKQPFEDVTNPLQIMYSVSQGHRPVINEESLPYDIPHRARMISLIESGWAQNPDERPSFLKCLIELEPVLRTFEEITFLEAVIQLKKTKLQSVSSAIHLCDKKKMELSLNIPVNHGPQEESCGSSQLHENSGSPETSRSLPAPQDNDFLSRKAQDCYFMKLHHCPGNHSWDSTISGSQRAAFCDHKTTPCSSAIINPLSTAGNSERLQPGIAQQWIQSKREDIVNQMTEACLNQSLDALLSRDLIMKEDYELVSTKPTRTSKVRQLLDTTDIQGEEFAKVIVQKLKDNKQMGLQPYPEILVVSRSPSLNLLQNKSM
Sequence of Abl (P00519 whole entry, species assumed): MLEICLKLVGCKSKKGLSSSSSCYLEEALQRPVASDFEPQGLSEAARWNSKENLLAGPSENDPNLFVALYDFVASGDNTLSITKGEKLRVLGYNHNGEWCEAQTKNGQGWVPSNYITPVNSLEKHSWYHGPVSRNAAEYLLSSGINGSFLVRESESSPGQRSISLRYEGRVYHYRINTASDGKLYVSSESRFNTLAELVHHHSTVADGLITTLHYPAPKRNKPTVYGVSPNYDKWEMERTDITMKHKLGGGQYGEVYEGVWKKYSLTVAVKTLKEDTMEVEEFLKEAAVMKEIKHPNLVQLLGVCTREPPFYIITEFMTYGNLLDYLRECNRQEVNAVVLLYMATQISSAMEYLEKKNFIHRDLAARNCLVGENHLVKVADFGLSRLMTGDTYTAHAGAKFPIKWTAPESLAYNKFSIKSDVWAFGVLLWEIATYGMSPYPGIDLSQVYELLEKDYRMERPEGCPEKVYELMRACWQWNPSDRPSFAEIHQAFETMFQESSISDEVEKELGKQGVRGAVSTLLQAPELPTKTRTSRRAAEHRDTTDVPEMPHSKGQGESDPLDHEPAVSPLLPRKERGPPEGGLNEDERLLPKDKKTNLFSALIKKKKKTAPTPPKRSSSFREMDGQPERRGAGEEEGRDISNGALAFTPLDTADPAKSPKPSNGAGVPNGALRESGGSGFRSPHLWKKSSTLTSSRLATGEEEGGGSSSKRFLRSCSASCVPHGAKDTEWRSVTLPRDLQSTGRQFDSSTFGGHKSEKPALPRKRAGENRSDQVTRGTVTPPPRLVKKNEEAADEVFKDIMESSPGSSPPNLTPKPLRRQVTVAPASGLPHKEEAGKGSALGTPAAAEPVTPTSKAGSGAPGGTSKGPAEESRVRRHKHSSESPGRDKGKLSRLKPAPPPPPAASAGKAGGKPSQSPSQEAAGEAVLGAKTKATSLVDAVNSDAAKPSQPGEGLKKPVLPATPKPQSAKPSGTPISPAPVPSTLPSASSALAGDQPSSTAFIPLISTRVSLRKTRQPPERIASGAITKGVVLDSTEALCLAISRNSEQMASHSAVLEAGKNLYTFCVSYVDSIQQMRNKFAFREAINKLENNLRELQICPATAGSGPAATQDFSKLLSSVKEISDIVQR
Sequence of cRaf (P04049 whole entry, species assumed): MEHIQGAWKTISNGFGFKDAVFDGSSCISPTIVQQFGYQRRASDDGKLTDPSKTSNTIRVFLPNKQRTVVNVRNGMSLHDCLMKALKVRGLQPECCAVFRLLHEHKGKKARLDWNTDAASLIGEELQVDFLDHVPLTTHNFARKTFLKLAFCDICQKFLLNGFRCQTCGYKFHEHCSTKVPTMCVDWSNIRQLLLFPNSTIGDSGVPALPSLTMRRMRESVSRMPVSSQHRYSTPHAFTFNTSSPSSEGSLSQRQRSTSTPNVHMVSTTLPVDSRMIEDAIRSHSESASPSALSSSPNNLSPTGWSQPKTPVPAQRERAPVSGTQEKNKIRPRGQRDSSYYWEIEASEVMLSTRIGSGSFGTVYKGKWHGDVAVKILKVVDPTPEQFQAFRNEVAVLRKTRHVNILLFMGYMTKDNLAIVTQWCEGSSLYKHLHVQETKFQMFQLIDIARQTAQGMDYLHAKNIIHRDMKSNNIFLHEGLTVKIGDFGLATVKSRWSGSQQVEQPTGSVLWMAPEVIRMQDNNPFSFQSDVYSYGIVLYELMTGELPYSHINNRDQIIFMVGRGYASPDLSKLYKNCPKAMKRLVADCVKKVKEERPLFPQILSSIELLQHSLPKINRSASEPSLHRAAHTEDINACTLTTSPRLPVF
Sequence of p56Lck (P06239 whole entry, species assumed): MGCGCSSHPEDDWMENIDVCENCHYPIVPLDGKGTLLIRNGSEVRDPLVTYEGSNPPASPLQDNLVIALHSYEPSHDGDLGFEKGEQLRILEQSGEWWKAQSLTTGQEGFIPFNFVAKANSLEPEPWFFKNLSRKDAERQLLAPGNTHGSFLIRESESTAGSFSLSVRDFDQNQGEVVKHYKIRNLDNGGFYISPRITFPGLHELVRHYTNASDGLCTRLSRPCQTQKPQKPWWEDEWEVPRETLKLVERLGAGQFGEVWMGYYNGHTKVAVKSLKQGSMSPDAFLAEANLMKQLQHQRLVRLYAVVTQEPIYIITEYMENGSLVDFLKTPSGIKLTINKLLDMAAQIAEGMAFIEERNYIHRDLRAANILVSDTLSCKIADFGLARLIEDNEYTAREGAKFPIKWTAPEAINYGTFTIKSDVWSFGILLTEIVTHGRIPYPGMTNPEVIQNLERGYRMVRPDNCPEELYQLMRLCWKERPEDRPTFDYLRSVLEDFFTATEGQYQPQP
Sequence of EGFR (P00533 25-1210, species assumed): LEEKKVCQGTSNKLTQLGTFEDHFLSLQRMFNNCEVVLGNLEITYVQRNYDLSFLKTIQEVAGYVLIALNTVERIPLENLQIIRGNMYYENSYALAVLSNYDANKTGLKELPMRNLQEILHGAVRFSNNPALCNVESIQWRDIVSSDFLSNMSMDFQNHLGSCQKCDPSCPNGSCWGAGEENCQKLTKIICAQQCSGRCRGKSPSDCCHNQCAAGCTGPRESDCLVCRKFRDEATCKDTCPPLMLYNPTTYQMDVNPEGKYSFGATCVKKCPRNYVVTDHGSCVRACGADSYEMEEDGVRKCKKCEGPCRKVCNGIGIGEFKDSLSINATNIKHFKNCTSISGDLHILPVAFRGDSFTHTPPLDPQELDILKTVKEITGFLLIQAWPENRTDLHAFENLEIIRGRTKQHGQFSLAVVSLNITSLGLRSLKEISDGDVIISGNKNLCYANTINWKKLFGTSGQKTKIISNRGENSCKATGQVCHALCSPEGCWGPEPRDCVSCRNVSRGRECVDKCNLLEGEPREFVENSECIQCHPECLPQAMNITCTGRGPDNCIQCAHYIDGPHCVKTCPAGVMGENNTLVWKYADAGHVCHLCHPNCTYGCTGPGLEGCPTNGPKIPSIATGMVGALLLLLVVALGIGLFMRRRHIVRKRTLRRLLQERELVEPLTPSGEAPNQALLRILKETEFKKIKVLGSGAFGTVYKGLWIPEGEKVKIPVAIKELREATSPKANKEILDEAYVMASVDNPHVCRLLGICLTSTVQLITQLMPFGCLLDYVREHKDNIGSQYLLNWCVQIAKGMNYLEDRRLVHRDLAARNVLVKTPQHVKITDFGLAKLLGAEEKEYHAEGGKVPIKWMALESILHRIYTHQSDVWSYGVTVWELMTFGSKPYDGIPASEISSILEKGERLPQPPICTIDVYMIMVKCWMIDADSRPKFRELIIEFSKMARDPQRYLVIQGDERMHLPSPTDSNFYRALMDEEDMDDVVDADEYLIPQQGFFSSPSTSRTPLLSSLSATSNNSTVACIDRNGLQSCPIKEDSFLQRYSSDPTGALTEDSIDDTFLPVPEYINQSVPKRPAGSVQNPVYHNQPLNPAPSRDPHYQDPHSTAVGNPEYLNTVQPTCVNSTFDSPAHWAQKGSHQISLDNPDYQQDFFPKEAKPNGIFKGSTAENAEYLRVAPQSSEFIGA

SMILES	Inhibitory effect on target PDGFR [1]	Inhibitory effect on target RICK [2]	inhibition at 10 µM [3]	inhibition at 10 µM [4]	inhibition at 10 µM [5]	inhibition at 10 µM [6]	Inhibitory effect on target EGFR [7]	Inhibitory effect on target p56Lck [4]	Inhibitory effect on target cRaf [6]
Oc1cccc(CNc2cncc(-c3ccsc3)c2)c1 [Compound 228, 3-[(5-Thiophen-3-yl-pyridin-3-ylamino)-methyl]-phenol]	A (A: 50-90% inhibition at 10 μM enzyme concentration)	C (C: IC50 measured: <1 μM)	50 to 90%						
COc1cncc(-c2cncc(NCc3cccc(O)c3)c2)c1 [Compound 222, 3-[(5′-Methoxy-[3,3′]bipyridinyl-5-ylamino)-methyl]-phenol]	A (A: 50-90% inhibition at 10 μM enzyme concentration)	C (C: IC50 measured: <1 μM)	50 to 90%	50 to 90%	50 to 90%				
Nc1cccc(-c2cncc(NCc3cccc(O)c3)c2)c1 [Compound 232, 3-{[5-(3-Amino-phenyl)-pyridin-3-ylamino]-methyl}-phenol]	A (A: 50-90% inhibition at 10 μM enzyme concentration)	C (C: IC50 measured: <1 μM)	> 90%	> 90%	> 90%	50 to 90%	A (A: 50-90% inhibition at 10 μM enzyme concentration)		
COc1ccc(-c2cncc(NCc3cccc(O)c3)c2)cn1 [Compound 207, S—K6′-Methoxy-fS.S′lbipyridinyl-δ-ylaminoJ-mθthyll-phenol]		C (C: IC50 measured: <1 μM)						A (A: 50-90% inhibition at 10 μM enzyme concentration)	
CS(=O)(=O)Nc1cccc(-c2cncc(NCc3cccc(O)c3)c2)c1 [Compound 226, N-{3-[5-(3-Hydroxy-benzylamino)-pyridin-3-yl]-phenyl}-methanesulfonamide]	A (A: 50-90% inhibition at 10 μM enzyme concentration)	C (C: IC50 measured: <1 μM)	> 90%	50 to 90%	50 to 90%		A (A: 50-90% inhibition at 10 μM enzyme concentration)		
Oc1cccc(CCNc2cncc(-c3cccc(O)c3)c2)c1 [Compound 244, 3-{5-[2-(3-Hydroxy-phenyl)-ethylamino]-pyridin-3-yl}-phenol]	A (A: 50-90% inhibition at 10 μM enzyme concentration)	C (C: IC50 measured: <1 μM)	50 to 90%	50 to 90%	50 to 90%		B (B: >90% inhibition at 10 μM enzyme concentration)		
CC(=O)Nc1cccc(-c2cncc(Nc3ccccc3)c2)c1 [Compound 194, N-[3-(5-Phenylamino-pyridin-3-yl)-phenyl]-acetamide]	A (A: 50-90% inhibition at 10 μM enzyme concentration)	C (C: IC50 measured: <1 μM)	50 to 90%						
O=C(NCCO)c1cccc(-c2cncc(NCc3cccc(O)c3)c2)c1 [Compound 217, 3-[5-(3-Hydroxy-benzylamino)-pyridin-3-yl]-N-(2-hydroxy-ethyl)-benzamide]	A (A: 50-90% inhibition at 10 μM enzyme concentration)	C (C: IC50 measured: <1 μM)	> 90%	> 90%	50 to 90%		A (A: 50-90% inhibition at 10 μM enzyme concentration)		
Oc1cccc(CNc2cncc(-c3ccccc3)c2)c1 [Compound 238, 3-[(5-Phenyl-pyridin-3-ylamino)-methyl]-phenol]	A (A: 50-90% inhibition at 10 μM enzyme concentration)	C (C: IC50 measured: <1 μM)	> 90%	50 to 90%	50 to 90%	50 to 90%	A (A: 50-90% inhibition at 10 μM enzyme concentration)		
CN(C)CCNC(=O)c1cccc(-c2cncc(NCc3cccc(O)c3)c2)c1 [Compound 224, N-(2-Dimethylamino-ethyl)-3-[5-(3-hydroxy-benzylamino)-pyridin-3-yl]-benzamide]	A (A: 50-90% inhibition at 10 μM enzyme concentration)	C (C: IC50 measured: <1 μM)	50 to 90%	50 to 90%	50 to 90%		A (A: 50-90% inhibition at 10 μM enzyme concentration)		
Oc1cccc(CNc2cncc(-c3cccnc3)c2)c1 [Compound 159, 3-([3,3′]Bipyridinyl-5-ylaminomethyl)-phenol]	A (A: 50-90% inhibition at 10 μM enzyme concentration)	C (C: IC50 measured: <1 μM)	50 to 90%	50 to 90%	50 to 90%		A (A: 50-90% inhibition at 10 μM enzyme concentration)		
OCc1cccc(-c2cncc(NCc3cccc(O)c3)c2)c1 [Compound 216, 3-{[5-(3-Hydroxymethyl-phenyl)-pyridin-3-ylamino]-methyl}-phenol]	A (A: 50-90% inhibition at 10 μM enzyme concentration)	C (C: IC50 measured: <1 μM)	> 90%	50 to 90%	50 to 90%	50 to 90%	A (A: 50-90% inhibition at 10 μM enzyme concentration)		
COc1ccc(Nc2cncc(-c3cccc(NC(C)=O)c3)c2)cc1 [Compound 227, N-{3-[5-(4-Methoxy-phenylamino)-pyridin-3-yl]-phenyl}-acetamide]	A (A: 50-90% inhibition at 10 μM enzyme concentration)	C (C: IC50 measured: <1 μM)	50 to 90%						
Oc1cccc(CNc2cncc(-c3cncnc3)c2)c1 [Compound 195, 3-[(5-Pyrimidin-5-yl-pyridin-3-ylamino)-methyl]-phenol]		C (C: IC50 measured: <1 μM)	50 to 90%	50 to 90%		50 to 90%			
Oc1cccc(CNc2cncc(-c3ccc(N4CCOCC4)cc3)c2)c1 [Compound 218, 3-{[5-(4-Morpholin-4-yl-phenyl)-pyridin-3-ylamino]-methyl}-phenol]	A (A: 50-90% inhibition at 10 μM enzyme concentration)	C (C: IC50 measured: <1 μM)	> 90%	50 to 90%			A (A: 50-90% inhibition at 10 μM enzyme concentration)		
CS(=O)(=O)c1ccc(-c2cncc(NCc3cccc(O)c3)c2)cc1 [Compound 206, 3-{[5-(4-Methanesulfonyl-phenyl)-pyridin-3-ylamino]-methyl}-phenol]		C (C: IC50 measured: <1 μM)	50 to 90%	50 to 90%					
COC(=O)c1cccc(CNc2cncc(-c3cccc(O)c3)c2)c1 [Compound 264, 3-{[5-(3-Hydroxy-phenyl)-pyridin-3-ylamino]mθthyl}-benzoic acid methyl ester]	A (A: 50-90% inhibition at 10 μM enzyme concentration)	A (A: 50-90% inhibition at 10 μM enzyme concentration)					A (A: 50-90% inhibition at 10 μM enzyme concentration)	A (A: 50-90% inhibition at 10 μM enzyme concentration)	A (A: 50-90% inhibition at 10 μM enzyme concentration)
